According to patent US10870647B2, “Imidazopyridine derivative, method for preparing same, and pharmaceutical composition containing same as active ingredient for preventing or treating cancer” (DAEGU-GYEONGBUK MEDICAL INNOVATION FOUNDATION, priority 2016, dated 2020):
Read-outs that look alike come from different tables or passages of the source.

How the values were obtained:
Experiment in all cases: Kinase selectivity, scanMAX Kinase assay panel (DiscoverX), % control at 1 uM
Assay type in all cases: binding
[1] = biological target: T1, scanMAX Kinase assay panel (Homo sapiens, UniProt P23458); settings: 1 uM, read-out: Percent Control (%)
T1 construct: purchased DiscoverX
T1 sequence (P23458 whole entry): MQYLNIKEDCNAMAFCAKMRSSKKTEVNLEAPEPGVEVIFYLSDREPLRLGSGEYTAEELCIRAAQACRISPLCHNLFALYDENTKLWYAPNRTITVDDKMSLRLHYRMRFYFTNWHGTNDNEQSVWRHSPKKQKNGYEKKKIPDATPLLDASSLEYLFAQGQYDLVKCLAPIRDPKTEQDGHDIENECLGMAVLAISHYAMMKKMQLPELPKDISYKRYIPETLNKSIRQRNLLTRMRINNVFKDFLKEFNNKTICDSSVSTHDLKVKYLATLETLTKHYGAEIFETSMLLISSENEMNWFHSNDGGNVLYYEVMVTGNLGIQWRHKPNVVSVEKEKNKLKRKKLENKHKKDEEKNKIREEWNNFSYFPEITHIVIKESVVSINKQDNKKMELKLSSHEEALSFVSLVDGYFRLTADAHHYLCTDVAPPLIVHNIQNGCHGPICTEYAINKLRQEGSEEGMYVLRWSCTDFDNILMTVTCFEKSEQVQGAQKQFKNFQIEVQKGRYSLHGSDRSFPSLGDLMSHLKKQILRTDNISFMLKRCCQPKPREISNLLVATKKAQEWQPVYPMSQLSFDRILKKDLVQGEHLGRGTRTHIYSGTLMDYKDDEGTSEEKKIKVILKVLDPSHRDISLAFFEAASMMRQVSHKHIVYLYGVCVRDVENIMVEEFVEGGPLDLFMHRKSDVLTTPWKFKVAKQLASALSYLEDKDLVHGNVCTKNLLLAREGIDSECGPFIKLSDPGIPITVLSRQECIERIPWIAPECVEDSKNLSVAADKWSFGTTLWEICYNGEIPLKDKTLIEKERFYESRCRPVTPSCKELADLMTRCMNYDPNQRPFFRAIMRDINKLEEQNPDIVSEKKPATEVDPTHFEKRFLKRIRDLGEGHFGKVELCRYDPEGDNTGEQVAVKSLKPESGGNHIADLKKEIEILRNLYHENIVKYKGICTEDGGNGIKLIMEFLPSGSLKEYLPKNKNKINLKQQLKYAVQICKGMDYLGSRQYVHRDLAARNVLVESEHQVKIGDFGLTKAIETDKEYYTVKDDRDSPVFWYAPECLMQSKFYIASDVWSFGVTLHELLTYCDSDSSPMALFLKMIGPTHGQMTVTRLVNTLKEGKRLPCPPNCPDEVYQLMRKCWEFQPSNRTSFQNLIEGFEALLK
Procedure, shortened: (§1)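 Each kinase was first exposed to the test compound at 1 uM in DMSO. Signal was then normalised to positive and negative controls to give % control. Finally, any enzyme showing <35% control was judged inhibited.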

[2] = biological target: T2, scanMAX Kinase assay panel (Homo sapiens, UniProt Q9P286); settings: PAK7; 1 uM; read-out: Percent Control (%)
T2 construct: purchased DiscoverX
Procedure, shortened: as §1

[3] = biological target: T3, scanMAX Kinase assay panel (Homo sapiens, UniProt P21709); settings: EPHA1; 1 uM; read-out: Percent Control (%)
T3 construct: purchased DiscoverX
T3 sequence (P21709 26-976): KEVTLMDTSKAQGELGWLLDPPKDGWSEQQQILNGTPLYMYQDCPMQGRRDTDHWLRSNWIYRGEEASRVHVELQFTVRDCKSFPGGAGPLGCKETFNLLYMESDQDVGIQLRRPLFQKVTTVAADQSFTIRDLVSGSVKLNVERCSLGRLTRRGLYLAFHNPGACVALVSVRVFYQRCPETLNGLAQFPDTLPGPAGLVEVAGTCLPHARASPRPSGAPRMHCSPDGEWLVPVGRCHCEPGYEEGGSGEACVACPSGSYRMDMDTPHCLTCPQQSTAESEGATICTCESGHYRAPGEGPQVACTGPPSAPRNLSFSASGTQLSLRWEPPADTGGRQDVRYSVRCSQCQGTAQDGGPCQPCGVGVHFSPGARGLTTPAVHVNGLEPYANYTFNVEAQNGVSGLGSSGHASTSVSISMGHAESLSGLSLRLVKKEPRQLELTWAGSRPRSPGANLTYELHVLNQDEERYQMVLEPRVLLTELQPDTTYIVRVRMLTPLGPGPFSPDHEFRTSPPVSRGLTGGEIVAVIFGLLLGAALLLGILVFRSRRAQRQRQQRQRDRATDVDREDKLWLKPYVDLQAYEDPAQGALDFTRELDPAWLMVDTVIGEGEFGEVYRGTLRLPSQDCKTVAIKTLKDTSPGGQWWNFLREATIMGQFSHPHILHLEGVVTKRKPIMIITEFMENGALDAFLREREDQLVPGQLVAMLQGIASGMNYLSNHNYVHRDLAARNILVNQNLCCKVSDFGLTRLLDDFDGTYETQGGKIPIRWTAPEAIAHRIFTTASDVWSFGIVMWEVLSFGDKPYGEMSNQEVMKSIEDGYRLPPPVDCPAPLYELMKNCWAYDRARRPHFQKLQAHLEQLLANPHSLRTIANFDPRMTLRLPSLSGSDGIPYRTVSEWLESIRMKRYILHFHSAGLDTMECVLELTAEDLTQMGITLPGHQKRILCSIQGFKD
Procedure, shortened: as §1

[4] = biological target: T4, scanMAX Kinase assay panel (Homo sapiens, UniProt Q8N568); settings: DCAMKL2; 1 uM; read-out: Percent Control (%)
T4 construct: purchased DiscoverX
Procedure, shortened: as §1

[5] = biological target: T5, scanMAX Kinase assay panel (Homo sapiens, UniProt P08069); settings: IGF1R; 1 uM; read-out: Percent Control (%)
T5 construct: purchased DiscoverX
T5 sequence (P08069 31-1367): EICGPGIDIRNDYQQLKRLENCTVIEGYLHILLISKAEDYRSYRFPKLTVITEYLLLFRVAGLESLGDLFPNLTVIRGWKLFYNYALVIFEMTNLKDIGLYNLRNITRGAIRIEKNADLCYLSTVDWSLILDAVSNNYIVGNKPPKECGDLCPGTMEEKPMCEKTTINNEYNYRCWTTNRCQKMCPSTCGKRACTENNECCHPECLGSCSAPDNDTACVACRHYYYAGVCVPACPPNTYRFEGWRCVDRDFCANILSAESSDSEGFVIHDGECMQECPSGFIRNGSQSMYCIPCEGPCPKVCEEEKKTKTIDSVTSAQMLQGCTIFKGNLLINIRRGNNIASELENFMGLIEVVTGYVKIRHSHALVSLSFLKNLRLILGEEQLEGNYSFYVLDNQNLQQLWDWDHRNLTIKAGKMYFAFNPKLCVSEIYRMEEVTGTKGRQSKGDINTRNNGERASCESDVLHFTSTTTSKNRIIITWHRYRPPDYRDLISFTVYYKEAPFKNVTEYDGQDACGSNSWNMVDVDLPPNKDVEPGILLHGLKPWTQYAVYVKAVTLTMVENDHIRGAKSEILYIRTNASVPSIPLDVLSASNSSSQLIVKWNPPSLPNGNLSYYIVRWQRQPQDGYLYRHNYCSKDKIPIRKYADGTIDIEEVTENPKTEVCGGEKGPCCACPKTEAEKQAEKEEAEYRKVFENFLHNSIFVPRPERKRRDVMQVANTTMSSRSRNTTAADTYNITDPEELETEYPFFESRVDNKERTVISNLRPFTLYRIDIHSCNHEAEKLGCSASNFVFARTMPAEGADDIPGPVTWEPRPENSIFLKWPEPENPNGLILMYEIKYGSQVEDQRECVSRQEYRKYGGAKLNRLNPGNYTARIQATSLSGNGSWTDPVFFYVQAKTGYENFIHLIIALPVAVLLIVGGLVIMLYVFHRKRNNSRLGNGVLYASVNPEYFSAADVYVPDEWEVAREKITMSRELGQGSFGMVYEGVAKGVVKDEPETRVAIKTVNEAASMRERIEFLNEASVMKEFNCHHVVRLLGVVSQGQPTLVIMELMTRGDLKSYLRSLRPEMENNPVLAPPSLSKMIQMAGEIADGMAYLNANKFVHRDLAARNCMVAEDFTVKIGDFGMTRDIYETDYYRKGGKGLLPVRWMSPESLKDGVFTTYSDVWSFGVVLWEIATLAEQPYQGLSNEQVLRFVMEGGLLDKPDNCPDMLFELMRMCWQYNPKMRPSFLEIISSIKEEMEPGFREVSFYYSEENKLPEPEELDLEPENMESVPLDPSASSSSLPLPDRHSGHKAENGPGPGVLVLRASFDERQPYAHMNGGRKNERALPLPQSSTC
Procedure, shortened: as §1

[6] = biological target: T6, scanMAX Kinase assay panel (Homo sapiens, UniProt O15111); settings: IKK-alpha; 1 uM; read-out: Percent Control (%)
T6 construct: purchased DiscoverX
T6 sequence (O15111 1-745): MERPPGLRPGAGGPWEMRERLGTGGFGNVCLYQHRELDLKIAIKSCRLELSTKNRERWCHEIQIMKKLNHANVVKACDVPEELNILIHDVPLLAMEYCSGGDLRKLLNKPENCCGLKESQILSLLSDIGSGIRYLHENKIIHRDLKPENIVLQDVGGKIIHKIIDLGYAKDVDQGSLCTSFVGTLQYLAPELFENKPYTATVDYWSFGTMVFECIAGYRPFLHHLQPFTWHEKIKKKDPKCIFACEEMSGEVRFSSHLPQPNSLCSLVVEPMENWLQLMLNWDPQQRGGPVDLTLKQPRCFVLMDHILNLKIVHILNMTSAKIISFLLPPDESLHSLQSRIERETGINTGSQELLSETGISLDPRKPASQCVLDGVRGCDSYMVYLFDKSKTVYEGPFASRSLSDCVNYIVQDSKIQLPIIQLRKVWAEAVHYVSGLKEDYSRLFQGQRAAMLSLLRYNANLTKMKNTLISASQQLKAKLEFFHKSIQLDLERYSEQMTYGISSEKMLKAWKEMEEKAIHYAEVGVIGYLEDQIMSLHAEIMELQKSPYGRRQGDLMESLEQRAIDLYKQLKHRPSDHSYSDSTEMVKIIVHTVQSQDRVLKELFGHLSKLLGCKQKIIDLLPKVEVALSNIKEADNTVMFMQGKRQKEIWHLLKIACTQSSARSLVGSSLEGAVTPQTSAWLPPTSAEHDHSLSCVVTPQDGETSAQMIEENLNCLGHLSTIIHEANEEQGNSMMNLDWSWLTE
Procedure, shortened: as §1

[7] = biological target: T7, scanMAX Kinase assay panel (Homo sapiens, UniProt Q02763); settings: TIE2; 1 uM; read-out: Percent Control (%)
T7 construct: purchased DiscoverX
T7 sequence (Q02763 23-1124): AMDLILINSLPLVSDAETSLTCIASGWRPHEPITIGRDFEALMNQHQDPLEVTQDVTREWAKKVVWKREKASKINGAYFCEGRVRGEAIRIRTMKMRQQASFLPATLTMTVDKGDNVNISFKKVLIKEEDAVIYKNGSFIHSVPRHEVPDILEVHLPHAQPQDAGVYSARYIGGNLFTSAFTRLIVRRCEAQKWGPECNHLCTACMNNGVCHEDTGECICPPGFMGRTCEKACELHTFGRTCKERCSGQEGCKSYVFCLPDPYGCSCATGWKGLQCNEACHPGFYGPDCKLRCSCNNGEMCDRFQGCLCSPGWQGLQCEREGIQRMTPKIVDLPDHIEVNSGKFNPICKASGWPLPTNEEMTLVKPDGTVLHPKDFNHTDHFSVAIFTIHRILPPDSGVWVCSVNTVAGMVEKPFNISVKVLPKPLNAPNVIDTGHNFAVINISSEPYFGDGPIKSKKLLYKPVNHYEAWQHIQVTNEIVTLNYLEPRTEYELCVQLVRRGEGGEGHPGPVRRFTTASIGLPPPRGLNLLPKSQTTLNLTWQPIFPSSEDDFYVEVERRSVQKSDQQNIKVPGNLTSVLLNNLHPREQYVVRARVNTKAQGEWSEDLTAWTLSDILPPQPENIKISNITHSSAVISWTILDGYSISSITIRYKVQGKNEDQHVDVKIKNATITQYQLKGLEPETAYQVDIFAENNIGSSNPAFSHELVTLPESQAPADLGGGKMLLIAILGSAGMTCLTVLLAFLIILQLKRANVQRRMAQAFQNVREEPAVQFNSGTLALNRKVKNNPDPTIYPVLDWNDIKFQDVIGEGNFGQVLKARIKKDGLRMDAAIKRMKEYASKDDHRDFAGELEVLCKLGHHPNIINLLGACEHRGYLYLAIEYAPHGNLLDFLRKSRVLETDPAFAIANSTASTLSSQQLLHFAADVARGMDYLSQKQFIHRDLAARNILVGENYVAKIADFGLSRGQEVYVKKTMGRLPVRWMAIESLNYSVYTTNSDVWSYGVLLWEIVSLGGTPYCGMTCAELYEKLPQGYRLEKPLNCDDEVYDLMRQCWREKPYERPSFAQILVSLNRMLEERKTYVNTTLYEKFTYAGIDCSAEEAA
Procedure, shortened: as §1

[8] = biological target: T8, scanMAX Kinase assay panel (Homo sapiens, UniProt Q07002); settings: PCTK3; 1 uM; read-out: Percent Control (%)
T8 construct: purchased DiscoverX
T8 sequence (Q07002 whole entry): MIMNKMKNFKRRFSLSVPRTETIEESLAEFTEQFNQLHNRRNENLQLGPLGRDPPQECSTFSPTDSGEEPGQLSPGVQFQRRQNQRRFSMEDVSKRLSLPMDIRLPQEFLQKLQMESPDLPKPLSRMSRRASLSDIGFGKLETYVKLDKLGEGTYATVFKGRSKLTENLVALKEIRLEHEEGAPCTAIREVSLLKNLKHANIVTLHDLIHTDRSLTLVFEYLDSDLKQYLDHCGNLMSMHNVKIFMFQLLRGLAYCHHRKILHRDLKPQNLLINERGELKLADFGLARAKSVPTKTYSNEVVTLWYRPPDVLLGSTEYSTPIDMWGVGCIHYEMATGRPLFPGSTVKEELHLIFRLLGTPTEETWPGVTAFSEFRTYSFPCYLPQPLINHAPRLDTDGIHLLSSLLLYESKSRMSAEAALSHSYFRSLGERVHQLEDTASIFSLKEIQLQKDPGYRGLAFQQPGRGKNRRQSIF
Procedure, shortened: as §1

[9] = biological target: T9, scanMAX Kinase assay panel (Homo sapiens, UniProt O43293); settings: DAPK3; 1 uM; read-out: Percent Control (%)
T9 construct: purchased DiscoverX
Procedure, shortened: as §1

[10] = biological target: T10, scanMAX Kinase assay panel (Homo sapiens, UniProt Q9BQI3); settings: EIF2AK1; 1 uM; read-out: Percent Control (%)
T10 construct: purchased DiscoverX
Procedure, shortened: as §1

[11] = biological target: T11, scanMAX Kinase assay panel (Homo sapiens, UniProt Q9UM73, C1156Y); settings: ALK (C1156Y); 1 uM; read-out: Percent Control (%)
T11 construct: purchased DiscoverX
Procedure, shortened: as §1

[12] = biological target: T12, scanMAX Kinase assay panel (Homo sapiens, UniProt P57059); settings: SIK; 1 uM; read-out: Percent Control (%)
T12 construct: purchased DiscoverX
T12 sequence (P57059 whole entry): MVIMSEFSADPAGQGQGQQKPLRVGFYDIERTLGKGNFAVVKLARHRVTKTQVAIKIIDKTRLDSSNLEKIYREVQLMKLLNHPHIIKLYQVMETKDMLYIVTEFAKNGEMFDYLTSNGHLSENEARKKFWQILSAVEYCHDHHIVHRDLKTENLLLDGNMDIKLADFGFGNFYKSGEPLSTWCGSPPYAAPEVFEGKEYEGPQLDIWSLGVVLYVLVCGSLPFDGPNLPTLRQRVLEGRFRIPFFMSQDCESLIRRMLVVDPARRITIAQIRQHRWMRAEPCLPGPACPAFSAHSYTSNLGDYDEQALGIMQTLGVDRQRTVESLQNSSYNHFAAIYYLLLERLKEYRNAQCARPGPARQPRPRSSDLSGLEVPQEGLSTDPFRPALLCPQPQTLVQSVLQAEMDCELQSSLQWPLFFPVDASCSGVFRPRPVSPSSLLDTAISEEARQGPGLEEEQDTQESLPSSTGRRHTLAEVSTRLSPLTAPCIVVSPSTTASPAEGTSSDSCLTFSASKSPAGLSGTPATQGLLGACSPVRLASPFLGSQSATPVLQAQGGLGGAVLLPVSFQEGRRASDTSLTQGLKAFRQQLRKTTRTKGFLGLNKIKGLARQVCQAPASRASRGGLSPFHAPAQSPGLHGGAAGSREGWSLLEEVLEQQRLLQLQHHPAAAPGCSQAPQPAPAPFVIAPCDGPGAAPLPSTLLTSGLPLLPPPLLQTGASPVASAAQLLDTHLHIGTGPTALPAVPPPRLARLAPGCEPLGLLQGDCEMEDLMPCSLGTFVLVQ
Procedure, shortened: as §1

## Cc1ccc(NC(=O)C2(C(=O)Nc3ccc(F)cc3)CC2)cc1C#Cc1cnc2c(Nc3cnn(C(C)C)c3)cccn12 [Example 78]
[1]; JAK1 (JH1domain-catalytic)
  remaining binding at 1 µM: 92%
[1]; JAK1 (JH2domain-pseudokinase)
  remaining binding at 1 µM: 100%
[2]
  remaining binding at 1 µM: 100%
[3]
  remaining binding at 1 µM: 69%
[4]
  remaining binding at 1 µM: 100%
[5]
  remaining binding at 1 µM: 100%
[6]
  remaining binding at 1 µM: 100%
[7]
  remaining binding at 1 µM: 16%
[8]
  remaining binding at 1 µM: 100%
[9]
  remaining binding at 1 µM: 100%
[10]
  remaining binding at 1 µM: 94%
[11]
  remaining binding at 1 µM: 100%
[12]
  remaining binding at 1 µM: 25%

## Cc1cn(-c2cc(NC(=O)c3ccc(C)c(C#Cc4cnc5c(Nc6cnn(C)c6)cccn45)c3)cc(C(F)(F)F)c2)cn1 [Example 12, 4-methyl-N-(3-(4-methyl-1H-imidazol-1-yl)-5-(trifluoromethyl)phenyl)-3-((8-((1-methyl-1H-pyrazol-4-yl)amino)imidazo[1,2-a]pyridin-3-yl)ethynyl)benzamide]
[1]; JAK1 (JH1domain-catalytic)
  remaining binding at 1 µM: 78%
[1]; JAK1 (JH2domain-pseudokinase)
  remaining binding at 1 µM: 44%
[2]
  remaining binding at 1 µM: 100%
[3]
  remaining binding at 1 µM: 8%
[4]
  remaining binding at 1 µM: 78%
[5]
  remaining binding at 1 µM: 100%
[6]
  remaining binding at 1 µM: 28%
[7]
  remaining binding at 1 µM: 0%
[8]
  remaining binding at 1 µM: 84%
[9]
  remaining binding at 1 µM: 100%
[10]
  remaining binding at 1 µM: 95%
[11]
  remaining binding at 1 µM: 100%
[12]
  remaining binding at 1 µM: 5%

## Cc1ccc(C(=O)Nc2ccc(CN3CCN(C)CC3)c(C(F)(F)F)c2)cc1C#Cc1cnc2c(Nc3cnn(C)c3)cccn12 [Example 1, 4-methyl-3-((8-((1-methyl-1H-pyrazol-4-yl)amino)imidazo[1,2-a]pyridin-3-yl)ethynyl)-N-(4-((4-methylpiperazin-1-yl)methyl)-3-(trifluoromethyl)phenyl)benzamide]
[1]; JAK1 (JH1domain-catalytic)
  remaining binding at 1 µM: 17%
[1]; JAK1 (JH2domain-pseudokinase)
  remaining binding at 1 µM: 70%
[2]
  remaining binding at 1 µM: 100%
[3]
  remaining binding at 1 µM: 2%
[4]
  remaining binding at 1 µM: 91%
[5]
  remaining binding at 1 µM: 56%
[6]
  remaining binding at 1 µM: 2%
[7]
  remaining binding at 1 µM: 0%
[8]
  remaining binding at 1 µM: 60%
[9]
  remaining binding at 1 µM: 68%
[10]
  remaining binding at 1 µM: 67%
[11]
  remaining binding at 1 µM: 76%
[12]
  remaining binding at 1 µM: 0%
